This is an account of results in US20150329558A1, “FUSED HETEROCYCLIC COMPOUNDS AS ION CHANNEL MODULATORS” (Gilead Sciences, Inc., priority 2011, published 2015).

Read-outs that look alike come from different tables or passages of the source.

The target in data set [1] is wild-type human cardiac sodium channel, hNav1.5 (late INa) (Homo sapiens, UniProt Q14524). The data set is described as follows: Late INa screening assay (QPatch whole cell patch clamp). Type of data set: cell-based. In short, it runs like this: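 HEK293 cells stably expressing hNav1.5 alpha subunit without beta subunits, QPatch automated whole-cell clamp at 23-25° C, CsF-based internal solution pH 7.4. Late INa induced by 10 μM tefluthrin; 250 ms steps to −20 mV from −120 mV at 0.1 Hz, compounds at 1 μM. Percent block of mean current 225–250 ms into the step.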
For orientation: Patch clamp records ionic current or voltage across a cell membrane.

The target in data set [2] is wild-type human cardiac sodium channel, hNav1.5 (peak INa) (Homo sapiens, UniProt Q14524). The data set is described as follows: Peak INa screening assay (tonic and use-dependent block). Type of data set: cell-based. The method, then: The late sodium current (Late INa) and peak sodium current (Peak INa) assays are performed on an automated electrophysiology platform, QPatch 16× (Sophion Bioscience, Copenhagen, Denmark), which uses the whole cell patch clamp technique to measure currents through the cell membrane of up to 16 cells at a time. The assay uses an HEK293 (human embryonic kidney) cell line heterologously expressing the wild-type human cardiac sodium channel, hNav1.5, purchased from Millipore (Billerica, Mass.). No beta subunits were coexpressed with the Na channel alpha subunit. Cells are maintained with standard tissue culture procedures and stable channel expression is maintained with 400 μg/mL Geneticin in the culture medium. […] Experiments are carried out at 23-25° C. For both the Late INa and Peak INa assays, series resistance compensation is set to 100% and series resistance and whole-cell compensation are performed automatically. Currents are digitized at 25 kHz and low-pass filtered at 12 kHz and 10 kHz for the late and peak INa assays, respectively. Currents through open sodium channels are automatically recorded and stored in the Sophion Bioscience Oracle database (Sophion Bioscience, Copehagen, Denmark). Analysis is performed using QPatch Assay and database software and data are compiled in Excel. Compound stocks are routinely made by the Gilead Sample Bank in plastic vials to 10 mM in dimethyl sulfoxide (DMSO). In some cases, when compounds are not soluble in DMSO, they are made in 100% ethanol. Stocks are sonicated as necessary. […] The intracellular solution used to perfuse the inside of the cells for both the Late INa and Peak INa assays contains: 120 mM CsF, 20 mM CsCl, 5 mM EGTA, 5 mM HEPES and pH adjusted to 7.4 with CsOH. Compounds are diluted in extracellular solution to 1 μM in glass vials and then transferred to glass well plates before robotic addition to the cells. […] Compounds were also evaluated for their effect in several other assays, including their effect on Peak INa. Good separation between the concentrations of test compound to reduce late and peak INa is beneficial to enable separation of the desired effect to reduce late INa-induced electrical and mechanical dysfunction from the undesired effect to reduce peak INa, which can lead to slowing or block of conduction of electrical excitation in the heart. It is contemplated that the compounds of Formula I avoid significant block of peak INa. Since the peak INa in the cells used herein can be very large, introducing artifacts in the recording, the concentration of Na^+ in the bath can be reduced to 20 mM and a nonpermeant cation added to compensate for the Na^+ that was removed to maintain the osmolarity and ionic strength of the solution (see solution details below). Analysis of peak INa generally requires correction for rundown before determining the % block of peak current by the tested compound. […] A low stimulation frequency of 0.1 Hz was used to determine the effect of the test compound when the channel spent most of the time in the resting (closed) state and provides information about Tonic Block (TB). A higher stimulation frequency (3 Hz) was used to measure block of the channel when it spent more time in the activated and inactivated states and provided a measure of Use-Dependent Block (UDB). Use-dependent block refers to the accumulation of block with increased frequency of channel activation. Block of cardiac peak INa by compounds of this invention is increased with an increase in the frequency of stimulation from 0.1 to 1-5 Hz (frequencies encountered either in the normal heart or during tachycardia). It is therefore expected that reduction of peak INa by compounds of this invention will be greater at high heart rates, such as those during tachyarrhythmias, than at normal heart rates. […]

Data set [3] is described as follows: Microsomal stability assay, rat. It counts as in vitro ADME. As to conditions: metabolic stability, rat liver microsomes 0.5 mg/mL, substrate 3 uM. The method in brief:
(§1)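 Liver microsomes at 0.5 mg/mL protein in 100 mM KPO4 buffer, incubated with 3 uM compound and NADPH-regenerating system, run in duplicate. Samples taken at 2, 12, 25, 45 and 65 min and quenched in MeOH/ACN/water before analysis.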

A short description of data set [4]: Microsomal stability assay, dog. Type of data set: in vitro ADME. As to conditions: metabolic stability, dog liver microsomes 0.5 mg/mL, substrate 3 uM. In short, it runs like this: as §1
(Liver microsomes are a subcellular fraction often used to study metabolism.)

Data set [5] in a line: Microsomal stability assay, human. Type of data set: in vitro ADME. Conditions: metabolic stability, human liver microsomes 0.5 mg/mL, substrate 3 uM. The method in brief: as §1
Setting [6] is: percent block of late INa, compound at 1 μM, 10 μM Tefluthrin, HEK293 hNav1.5, read-out: Late INa 1 μM.
Where [7] appears, read: tonic block of peak INa, 0.1 Hz, 1 μM, read-out: Peak TB 1 μM.
The mark [8] stands for this setting: use-dependent block of peak INa, 3 Hz, 1 μM, read-out: Peak UDB 1 μM.

wild-type human cardiac sodium channel, hNav1.5 (late INa), sequence (Q14524 whole entry): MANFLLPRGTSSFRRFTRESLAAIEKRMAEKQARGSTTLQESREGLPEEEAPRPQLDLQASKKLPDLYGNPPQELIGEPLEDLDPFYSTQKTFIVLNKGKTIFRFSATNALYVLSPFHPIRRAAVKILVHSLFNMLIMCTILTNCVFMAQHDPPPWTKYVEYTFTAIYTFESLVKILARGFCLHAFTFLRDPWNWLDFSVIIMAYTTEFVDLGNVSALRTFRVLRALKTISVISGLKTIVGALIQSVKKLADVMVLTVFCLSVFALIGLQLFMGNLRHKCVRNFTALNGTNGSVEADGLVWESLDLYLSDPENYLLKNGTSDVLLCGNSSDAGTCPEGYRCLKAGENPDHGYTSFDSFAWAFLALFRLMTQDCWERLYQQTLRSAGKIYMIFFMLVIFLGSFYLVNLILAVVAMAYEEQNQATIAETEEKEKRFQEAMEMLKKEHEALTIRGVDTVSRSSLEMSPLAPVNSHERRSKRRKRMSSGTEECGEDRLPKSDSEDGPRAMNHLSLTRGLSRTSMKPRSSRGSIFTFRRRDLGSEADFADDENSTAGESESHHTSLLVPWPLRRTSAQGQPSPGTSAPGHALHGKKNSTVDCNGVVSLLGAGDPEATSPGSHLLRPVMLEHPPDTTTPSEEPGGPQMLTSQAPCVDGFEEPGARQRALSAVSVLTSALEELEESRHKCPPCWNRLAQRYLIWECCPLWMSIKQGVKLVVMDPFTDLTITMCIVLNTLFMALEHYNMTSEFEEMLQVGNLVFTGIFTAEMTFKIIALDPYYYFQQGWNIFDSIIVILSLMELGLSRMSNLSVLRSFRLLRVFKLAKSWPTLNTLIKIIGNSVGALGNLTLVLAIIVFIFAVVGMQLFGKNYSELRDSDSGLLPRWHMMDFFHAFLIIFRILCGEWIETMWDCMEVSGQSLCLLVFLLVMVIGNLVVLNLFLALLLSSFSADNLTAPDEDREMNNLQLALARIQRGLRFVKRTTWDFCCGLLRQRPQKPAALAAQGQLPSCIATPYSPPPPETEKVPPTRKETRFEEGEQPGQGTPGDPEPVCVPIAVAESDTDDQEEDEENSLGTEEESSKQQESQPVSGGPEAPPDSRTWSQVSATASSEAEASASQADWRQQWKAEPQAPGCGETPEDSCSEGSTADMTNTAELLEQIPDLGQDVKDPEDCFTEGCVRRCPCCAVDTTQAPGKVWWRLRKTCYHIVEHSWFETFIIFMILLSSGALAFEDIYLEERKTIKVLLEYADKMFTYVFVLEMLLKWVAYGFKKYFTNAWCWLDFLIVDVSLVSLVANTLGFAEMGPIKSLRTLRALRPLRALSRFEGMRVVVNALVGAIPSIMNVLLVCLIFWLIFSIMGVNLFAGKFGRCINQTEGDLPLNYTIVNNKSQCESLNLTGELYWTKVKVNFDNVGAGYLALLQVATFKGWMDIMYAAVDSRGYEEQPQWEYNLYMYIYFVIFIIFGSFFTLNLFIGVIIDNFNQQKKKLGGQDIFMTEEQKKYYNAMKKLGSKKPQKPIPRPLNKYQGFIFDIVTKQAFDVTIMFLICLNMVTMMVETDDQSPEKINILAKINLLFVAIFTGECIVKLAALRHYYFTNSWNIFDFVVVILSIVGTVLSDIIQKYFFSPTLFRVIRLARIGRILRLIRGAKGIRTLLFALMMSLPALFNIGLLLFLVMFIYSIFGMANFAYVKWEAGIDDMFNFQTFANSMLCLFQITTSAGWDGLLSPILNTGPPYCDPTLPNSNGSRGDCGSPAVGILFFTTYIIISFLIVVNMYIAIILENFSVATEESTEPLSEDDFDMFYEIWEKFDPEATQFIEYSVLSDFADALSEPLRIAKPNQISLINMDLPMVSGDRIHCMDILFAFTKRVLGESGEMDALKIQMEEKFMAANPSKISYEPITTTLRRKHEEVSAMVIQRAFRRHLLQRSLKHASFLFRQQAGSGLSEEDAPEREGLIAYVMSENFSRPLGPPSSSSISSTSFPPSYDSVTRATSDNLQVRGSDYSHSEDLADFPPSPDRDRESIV
wild-type human cardiac sodium channel, hNav1.5 (peak INa), sequence (Q14524 whole entry): as above

As for `Cc1nc(Cn2nnc3ccc(-c4ccc(OC(F)(F)F)cc4)cc3c2=O)co1` [II-99, 3-((2-methyloxazol-4-yl)methyl)-6-(4-(trifluoromethoxy)phenyl)benzo[d][1,2,3]triazin-4(3H)-one], the inhibition at 1 µM in data set [1] (setting [6]) was determined as 47%; in data set [2] (setting [7]), 9%; in data set [2] (setting [8]), 0%. In data set [3], this compound registered an MS Rat THalf of 42 min. The same compound came in with an MS Dog THalf in data set [4] of 62 min. The MS Human THalf in data set [5] was 128 min.
As to `O=c1c2cc(-c3ccc(OC(F)(F)F)cc3)ccc2nnn1Cc1coc(C2CC2)n1` [II-100, 3((2-cyclopropyloxazol-4-yl)methyl)-6-(4-(trifluoromethoxy)phenyl)benzo[d][1,2,3]triazin-4(3H)-one], the inhibition at 1 µM in data set [1] (setting [6]) was 50%; in data set [2] (setting [7]), 15%; in data set [2] (setting [8]), 2%. Further, the MS Rat THalf in data set [3] is 35 min. Further, in data set [4], the MS Dog THalf was 76 min. The MS Human THalf in data set [5] turned out to be 52 min.
Take `O=c1c2cc(-c3ccc(OC(F)(F)F)cc3)ccc2cnn1Cc1nccc(C2CC2)n1` [III-23, 2-((4-cyclopropylpyrimidin-2-yl)methyl)-7-(4-(trifluoromethoxy)phenyl)phthalazin-1 (2H)-one]: the inhibition at 1 µM is 51% in data set [1] (setting [6]), 6% in data set [2] (setting [7]) and 12% in data set [2] (setting [8]). Also, the MS Rat THalf in data set [3] came to 42 min. Besides, the MS Dog THalf in data set [4] came to 209 min. In data set [5], this compound showed an MS Human THalf of 254 min.
In the case of `O=c1c2cc(-c3ccc(OC(F)(F)F)cc3)ccc2cnn1Cc1nccc(OCC2CC2)n1` [III-27, 2((4-(cyclopropylmethoxy)pyrimidin-2-yl)methyl)-7-(4-(trifluoromethoxy)phenyl)phthalazin-1 (2H)-one], the inhibition at 1 µM in data set [1] (setting [6]) is 52%; in data set [2] (setting [7]), 15%; in data set [2] (setting [8]) it was 15%. Besides, in data set [3], the MS Rat THalf came to 43 min. The MS Dog THalf in data set [4] worked out at 83 min. This compound also gave an MS Human THalf in data set [5] of 268 min.
With `O=c1c2cc(-c3ccc(OC(F)(F)F)cc3)ccc2cnn1CCOc1nccc(C2CC2)n1` [III-29, 2-(2-(4-cyclopropylpyrimidin-2-yloxy)ethyl)-7-(4-(trifluoromethoxy)phenyl)phthalazin-1 (2H)-one], the inhibition at 1 µM in data set [1] (setting [6]) was 58%; in data set [2] (setting [7]), 10%; in data set [2] (setting [8]), 9%. In data set [3], this compound showed an MS Rat THalf of 26 min. This compound also showed an MS Dog THalf in data set [4] of 18 min. The MS Human THalf in data set [5] was 19 min.
Consider `COc1ccnc(Cn2ncc3ccc(-c4ccc(OC(F)(F)F)cc4)cc3c2=O)n1` [III-30, 2-((4-methoxypyrimidin-2-yl)methyl)-7-(4-(trifluoromethoxy)phenyl)phthalazin-1 (2H)-one], for which the results for the inhibition at 1 µM in data set [1] (setting [6]), in data set [2] (setting [7]) and in data set [2] (setting [8]) were 56%, 11% and 12%, respectively. In data set [3], this compound registered an MS Rat THalf of 70 min. In data set [4], this compound showed an MS Dog THalf of 167 min. Also, the MS Human THalf in data set [5] came to 205 min.
Consider `Cc1ccnn1CCn1ncc2ccc(-c3ccc(OC(F)(F)F)cc3)cc2c1=O` [III-32, 2-(2-(5-methyl-1H-pyrazol-1-yl)ethyl)-7-(4-(trifluoromethoxy)phenyl)phthalazin-1 (2H)-one], for which the inhibition at 1 µM in data set [1] (setting [6]) is 53%; in data set [2] (setting [7]), 18%; in data set [2] (setting [8]), 23%. The compound further showed an MS Rat THalf in data set [3] of 12 min. Further, in data set [4], the MS Dog THalf worked out at 16 min. The same compound returned an MS Human THalf in data set [5] of 20 min.
In the case of `O=c1c2cc(-c3ccc(OC(F)(F)F)cc3)ccc2cnn1CCOc1ncc(Cl)cn1` [III-37, 2-(2-(5-chloropyrimidin-2-yloxy)ethyl)-7-(4-(trifluoromethoxy)phenyl)phthalazin-1 (2H)-one], the inhibition at 1 µM in data set [1] (setting [6]) was 50%; in data set [2] (setting [7]) it was 7%; in data set [2] (setting [8]), 4%. In addition, the MS Rat THalf in data set [3] stood at 96 min. Besides, in data set [4], the MS Dog THalf was found to be 37 min. In data set [5], this compound registered an MS Human THalf of 157 min.
Turning to `CC(Cn1ncc2ccc(-c3ccc(OC(F)(F)F)cc3)cc2c1=O)n1cccn1` (stereo not drawn) [III-38, 2-(2-(1H-pyrazol-1-yl)propyl)-7-(4-(trifluoromethoxy)phenyl)phthalazin-1 (2H)-one], the figures for the inhibition at 1 µM in data set [1] (setting [6]), in data set [2] (setting [7]) and in data set [2] (setting [8]) were 52%, 9% and 11%, respectively. In data set [3], this compound gave an MS Rat THalf of 24 min. In addition, the MS Dog THalf in data set [4] is 31 min. Further, in data set [5], the MS Human THalf was determined as 54 min.
Take `O=c1c2cc(-c3ccc(OC(F)(F)F)cc3)ccc2cnn1CCOc1cnccn1` [III-39, 2-(2-(pyrazin-2-yloxy)ethyl)-7-(4-(trifluoromethoxy)phenyl)phthalazin-1 (2H)-one]: the values for the inhibition at 1 µM in data set [1] (setting [6]), in data set [2] (setting [7]) and in data set [2] (setting [8]) were 47%, 7% and 0%, respectively. The same compound showed an MS Rat THalf in data set [3] of 30 min. In addition, the MS Dog THalf in data set [4] was 14 min. In data set [5], the MS Human THalf came out at 44 min.
Turning to `O=c1c2cc(-c3ccc(OC(F)(F)F)cc3)ccc2cnn1CCOc1ccccn1` [III-40, 2-(2-(pyridin-2-yloxy)ethyl)-7-(4-(trifluoromethoxy)phenyl)phthalazin-1 (2H)-one], the inhibition at 1 µM in data set [1] (setting [6]) is 51%; in data set [2] (setting [7]) it was 4%; in data set [2] (setting [8]), 2%. The MS Rat THalf in data set [3] turned out to be 62 min. The same compound displayed an MS Dog THalf in data set [4] of 56 min. Besides, the MS Human THalf in data set [5] came out at 152 min.
Regarding `O=C(c1ccccn1)N1CCc2ccc(-c3ccc(C(F)(F)F)cc3)cc2C1` [IX-6, pyridin-2-yl(7-(4-(trifluoromethyl)phenyl)-3,4-dihydroisoquinolin-2(1H)-yl)methanone], the inhibition at 1 µM in data set [1] (setting [6]) is 62%; in data set [2] (setting [7]), 28%; in data set [2] (setting [8]), 37%. In addition, the MS Rat THalf in data set [3] was 272 min. In addition, in data set [4], the MS Dog THalf amounted to 313 min. The compound also registered an MS Human THalf in data set [5] of 54 min.
Regarding `O=C(c1ncccn1)N1CCc2ccc(-c3ccc(OC(F)(F)F)cc3)cc2C1` [IX-11, pyrimidin-2-yl(7-(4-(trifluoromethoxy)phenyl)-3,4-dihydroisoquinolin-2(1H)-yl)methanone], the inhibition at 1 µM in data set [1] (% inhibition at 1 μM, read-out: NAv1.5*-LATE-) came to 44%; in data set [1] (setting [6]), 44%; in data set [2] (% inhibition at 1 μM, tonic block, read-out: NAv1.5*-PEAK-TB-) it was 17%; in data set [2] (% inhibition at 1 μM, use-dependent block 3 Hz, read-out: NAv1.5*-PEAK-UDB-3 HZ-) it was 22%; in data set [2] (setting [7]), 17%; in data set [2] (setting [8]), 22%. This compound also returned an MS Rat THalf in data set [3] of 348 min. Further, the MS Dog THalf in data set [4] is 332 min. Moreover, in data set [5], the MS Human THalf was found to be 145 min.
